Experimental data: ChEMBL document CHEMBL1201862, “PubChem BioAssay data set” (2004)
Each block holds one molecule with its values, some of them ahead of it. Active and inactive are the calls of the source.

Tests used:
[1] = target: Potassium voltage-gated channel subfamily KQT member 2 (Rattus norvegicus, UniProt O88943); experiment: KCNQ2 potassium channel inhibitors, dose response, cell-based, automated electrophysiology, set II, rat KCNQ2 (AID 588637); type: functional
[2] = target: T1, Zinc finger protein mex-5 (Caenorhabditis elegans, UniProt Q9XUB2); experiment: MEX-5/TCR-2 RNA interaction inhibitors, dose response, biochemical, C. elegans, fluorescence polarization (AID 1960)
T1 sequence (Q9XUB2 whole entry): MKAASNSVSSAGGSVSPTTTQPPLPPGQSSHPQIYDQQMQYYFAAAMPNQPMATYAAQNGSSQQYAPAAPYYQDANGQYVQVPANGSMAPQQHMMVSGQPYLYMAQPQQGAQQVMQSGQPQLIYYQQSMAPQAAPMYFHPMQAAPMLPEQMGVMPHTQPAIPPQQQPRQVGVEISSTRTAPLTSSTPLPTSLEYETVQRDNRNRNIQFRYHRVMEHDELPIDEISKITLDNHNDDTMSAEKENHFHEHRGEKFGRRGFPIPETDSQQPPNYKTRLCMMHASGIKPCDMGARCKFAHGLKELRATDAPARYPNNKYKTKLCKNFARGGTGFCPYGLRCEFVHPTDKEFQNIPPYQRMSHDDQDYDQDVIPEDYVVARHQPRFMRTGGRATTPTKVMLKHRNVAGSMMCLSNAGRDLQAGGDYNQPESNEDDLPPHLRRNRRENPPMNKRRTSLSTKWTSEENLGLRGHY

[3] = target: Dual specificity tyrosine-phosphorylation-regulated kinase 1A (Rattus norvegicus, UniProt Q63470); type: biochemical, Homo sapiens
[4] = target: T2, Mitochondrial peptide methionine sulfoxide reductase (Bos taurus, UniProt P54149); experiment: Absorbance-based biochemical high throughput dose response assay for activators of Methionine sulfoxide reductase A (MsrA).; type: functional
T2 sequence (P54149 whole entry): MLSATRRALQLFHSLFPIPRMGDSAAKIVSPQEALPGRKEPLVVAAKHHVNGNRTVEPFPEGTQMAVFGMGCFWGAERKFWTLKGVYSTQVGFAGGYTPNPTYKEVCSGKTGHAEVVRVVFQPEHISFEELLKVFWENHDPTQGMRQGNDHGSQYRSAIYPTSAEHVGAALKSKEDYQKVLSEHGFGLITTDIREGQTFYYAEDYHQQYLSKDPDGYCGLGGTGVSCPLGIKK

[5] = target: T3, RNA-binding protein pos-1 (Caenorhabditis elegans, UniProt G5EF15); experiment: inhibitors of POS-1/mex-3 RNA binding, dose response, biochemical, fluorescence polarization (AID 1964);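 further: purified POS-1 fused to maltose binding protein made in E. coli; potency of compounds blocking POS-1 binding to fluorescent RNA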
T3 sequence (G5EF15 whole entry): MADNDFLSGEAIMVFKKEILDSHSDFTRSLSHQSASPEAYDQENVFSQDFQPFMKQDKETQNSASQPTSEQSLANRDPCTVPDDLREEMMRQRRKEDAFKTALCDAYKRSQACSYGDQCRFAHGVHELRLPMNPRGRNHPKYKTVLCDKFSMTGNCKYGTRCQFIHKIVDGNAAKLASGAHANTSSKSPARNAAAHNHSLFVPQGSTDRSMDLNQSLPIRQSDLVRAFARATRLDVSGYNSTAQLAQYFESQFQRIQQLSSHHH

[6] = target: Tyrosine-protein phosphatase non-receptor type 11 (Homo sapiens, UniProt Q06124); experiment: SHP2 phosphatase inhibition, dose response, selectivity assay for STEP inhibitor project, biochemical (AID 602367); type: functional; conditions: read-out: IC50_Mean
[7] = target: Tyrosine-protein phosphatase non-receptor type 5 (Homo sapiens, UniProt P54829); experiment: STEP phosphatase inhibitors, confirmation, biochemical, fluorescence intensity, uHTS hits (AID 602372); type: functional; conditions: read-out: IC50_Mean
[8] = target: Dual specificity protein phosphatase 3 (Homo sapiens, UniProt P51452); experiment: VHR phosphatase inhibition, dose response, selectivity assay for STEP inhibitor project, biochemical (AID 602374); type: functional; conditions: read-out: IC50_Mean
[9] = ARNT/TACC3 interaction disruptors, potency, confirmation, biochemical, AlphaScreen, cherry-picked samples (AID 651703); type: functional, Homo sapiens;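 further: His-tagged ARNT PAS-B domain paired with GST-TACC3 E629A dimer coactivator fragment; potency of inhibitors that break up the complex and lower AlphaScreen signal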
[10] = target: T4, Rac GTPase-activating protein 1 (Homo sapiens, UniProt Q9H0H5); experiment: MgcRacGAP GTPase-activating activity inhibitors, confirmation, biochemical, ADP Hunter fluorescence, primary and confirmatory (AID 624330); type: functional
T4 sequence (Q9H0H5 whole entry): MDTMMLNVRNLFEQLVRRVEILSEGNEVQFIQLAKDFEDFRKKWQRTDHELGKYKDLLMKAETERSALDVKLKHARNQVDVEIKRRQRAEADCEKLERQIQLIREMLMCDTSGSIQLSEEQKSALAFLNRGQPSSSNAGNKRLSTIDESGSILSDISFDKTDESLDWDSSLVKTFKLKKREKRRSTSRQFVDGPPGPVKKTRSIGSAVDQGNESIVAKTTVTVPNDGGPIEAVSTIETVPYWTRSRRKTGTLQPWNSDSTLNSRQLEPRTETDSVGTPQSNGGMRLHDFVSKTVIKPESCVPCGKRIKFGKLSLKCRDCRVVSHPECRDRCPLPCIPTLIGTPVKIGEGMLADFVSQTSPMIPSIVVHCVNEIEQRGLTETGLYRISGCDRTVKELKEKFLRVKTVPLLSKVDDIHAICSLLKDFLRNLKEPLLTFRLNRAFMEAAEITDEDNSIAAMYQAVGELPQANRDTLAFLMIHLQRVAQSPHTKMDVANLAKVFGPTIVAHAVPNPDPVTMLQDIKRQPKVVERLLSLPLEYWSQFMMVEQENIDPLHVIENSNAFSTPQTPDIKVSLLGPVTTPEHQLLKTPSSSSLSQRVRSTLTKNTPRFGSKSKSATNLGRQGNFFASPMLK

[11] = target: Tyrosine-protein kinase Lck (Homo sapiens, UniProt P06239); type: functional;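 further: lck was assayed as one member of a kinase panel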
[12] = target: Tyrosine-protein kinase BTK (Homo sapiens, UniProt Q06187); type: functional
[13] = target: T5, Serine/threonine-protein kinase TAO1 (Homo sapiens, UniProt Q7L7X3); type: functional
T5 sequence (Q7L7X3 whole entry): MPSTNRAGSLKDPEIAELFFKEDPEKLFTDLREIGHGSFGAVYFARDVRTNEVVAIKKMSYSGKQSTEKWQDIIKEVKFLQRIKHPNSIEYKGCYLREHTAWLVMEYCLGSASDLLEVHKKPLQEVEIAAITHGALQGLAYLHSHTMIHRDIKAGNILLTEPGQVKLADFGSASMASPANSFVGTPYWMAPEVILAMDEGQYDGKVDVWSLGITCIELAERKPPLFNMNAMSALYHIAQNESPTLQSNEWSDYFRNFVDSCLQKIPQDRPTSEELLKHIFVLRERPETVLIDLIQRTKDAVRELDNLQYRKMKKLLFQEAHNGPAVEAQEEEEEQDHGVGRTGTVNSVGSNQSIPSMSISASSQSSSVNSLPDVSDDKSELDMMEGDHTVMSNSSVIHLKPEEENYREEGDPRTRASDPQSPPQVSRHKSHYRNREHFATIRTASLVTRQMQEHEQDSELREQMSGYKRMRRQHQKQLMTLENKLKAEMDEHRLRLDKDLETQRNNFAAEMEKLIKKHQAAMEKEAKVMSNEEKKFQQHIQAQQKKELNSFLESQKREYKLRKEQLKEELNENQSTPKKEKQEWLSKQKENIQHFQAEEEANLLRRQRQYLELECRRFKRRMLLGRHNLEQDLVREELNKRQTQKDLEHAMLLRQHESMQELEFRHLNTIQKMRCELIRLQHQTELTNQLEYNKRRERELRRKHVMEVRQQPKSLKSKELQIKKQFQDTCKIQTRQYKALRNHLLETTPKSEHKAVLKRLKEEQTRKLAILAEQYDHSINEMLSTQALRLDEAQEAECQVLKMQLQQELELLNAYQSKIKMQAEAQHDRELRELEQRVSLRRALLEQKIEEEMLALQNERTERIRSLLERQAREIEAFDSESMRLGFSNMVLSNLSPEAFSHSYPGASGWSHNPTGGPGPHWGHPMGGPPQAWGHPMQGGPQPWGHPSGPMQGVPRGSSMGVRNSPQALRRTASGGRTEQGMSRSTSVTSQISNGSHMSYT

[14] = target: BDNF/NT-3 growth factors receptor (Homo sapiens, UniProt Q16620); type: functional;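 further: NTRK2 measured as one member of a broad kinome-wide kinase profiling panel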
[15] = target: ALK tyrosine kinase receptor (Homo sapiens, UniProt Q9UM73); type: functional;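 further: ALK tested as one member of a kinase panel screen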
[16] = target: Serine/threonine-protein kinase pim-1 (Homo sapiens, UniProt P11309); type: functional
[17] = target: Tyrosine-protein kinase Fyn (Homo sapiens, UniProt P06241); type: functional
[18] = target: Dual specificity protein kinase CLK4 (Homo sapiens, UniProt Q9HAZ1); type: functional
Dual specificity protein kinase CLK4, sequence (Q9HAZ1 whole entry): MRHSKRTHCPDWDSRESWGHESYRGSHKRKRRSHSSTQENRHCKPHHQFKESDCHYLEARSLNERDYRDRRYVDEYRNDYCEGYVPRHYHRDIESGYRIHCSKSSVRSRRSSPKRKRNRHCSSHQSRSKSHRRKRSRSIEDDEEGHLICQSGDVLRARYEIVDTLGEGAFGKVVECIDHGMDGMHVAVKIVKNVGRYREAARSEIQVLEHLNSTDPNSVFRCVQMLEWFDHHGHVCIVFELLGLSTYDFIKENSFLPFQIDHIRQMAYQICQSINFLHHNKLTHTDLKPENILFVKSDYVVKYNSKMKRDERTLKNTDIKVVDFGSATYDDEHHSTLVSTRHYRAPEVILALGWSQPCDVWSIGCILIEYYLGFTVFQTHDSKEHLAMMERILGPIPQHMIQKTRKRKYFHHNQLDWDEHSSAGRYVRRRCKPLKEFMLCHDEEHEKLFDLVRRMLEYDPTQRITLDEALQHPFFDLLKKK

Potassium voltage-gated channel subfamily KQT member 2, sequence (O88943 whole entry): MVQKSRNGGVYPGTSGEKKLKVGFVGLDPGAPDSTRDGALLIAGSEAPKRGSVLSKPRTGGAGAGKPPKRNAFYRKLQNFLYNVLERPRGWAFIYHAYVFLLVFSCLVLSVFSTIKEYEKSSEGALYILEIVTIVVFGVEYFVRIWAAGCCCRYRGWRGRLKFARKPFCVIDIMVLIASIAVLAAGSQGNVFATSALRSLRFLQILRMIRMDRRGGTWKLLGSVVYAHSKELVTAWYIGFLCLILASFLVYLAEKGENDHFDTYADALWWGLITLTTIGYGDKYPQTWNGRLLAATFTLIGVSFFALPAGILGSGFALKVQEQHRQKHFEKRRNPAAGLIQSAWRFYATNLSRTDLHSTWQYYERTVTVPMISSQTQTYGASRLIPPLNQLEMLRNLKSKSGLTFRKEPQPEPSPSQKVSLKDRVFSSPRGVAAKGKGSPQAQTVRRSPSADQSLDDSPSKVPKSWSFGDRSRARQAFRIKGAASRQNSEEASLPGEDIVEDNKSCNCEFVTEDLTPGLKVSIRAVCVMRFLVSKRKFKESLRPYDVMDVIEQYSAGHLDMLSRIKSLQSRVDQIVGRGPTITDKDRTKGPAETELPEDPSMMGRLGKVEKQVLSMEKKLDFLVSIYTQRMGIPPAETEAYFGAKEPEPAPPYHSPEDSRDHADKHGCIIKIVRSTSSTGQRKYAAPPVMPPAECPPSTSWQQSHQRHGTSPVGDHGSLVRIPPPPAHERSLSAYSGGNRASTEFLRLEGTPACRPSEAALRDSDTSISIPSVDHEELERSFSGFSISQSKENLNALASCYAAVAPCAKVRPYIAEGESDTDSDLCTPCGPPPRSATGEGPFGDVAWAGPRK
Tyrosine-protein kinase Fyn, sequence (P06241 whole entry): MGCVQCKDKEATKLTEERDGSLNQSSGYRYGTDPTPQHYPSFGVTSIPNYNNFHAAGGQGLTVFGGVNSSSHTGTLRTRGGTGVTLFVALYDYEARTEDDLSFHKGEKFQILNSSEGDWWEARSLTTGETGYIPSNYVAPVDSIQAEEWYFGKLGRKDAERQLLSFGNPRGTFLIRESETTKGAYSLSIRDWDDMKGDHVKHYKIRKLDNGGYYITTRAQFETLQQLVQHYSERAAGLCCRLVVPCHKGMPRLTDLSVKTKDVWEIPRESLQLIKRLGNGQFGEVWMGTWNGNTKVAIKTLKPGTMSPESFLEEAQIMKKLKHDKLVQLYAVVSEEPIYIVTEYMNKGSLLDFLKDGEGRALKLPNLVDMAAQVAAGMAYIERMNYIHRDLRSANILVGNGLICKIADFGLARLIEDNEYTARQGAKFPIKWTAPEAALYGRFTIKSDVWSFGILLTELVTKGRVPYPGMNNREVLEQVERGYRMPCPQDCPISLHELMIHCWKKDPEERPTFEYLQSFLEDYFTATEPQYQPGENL
BDNF/NT-3 growth factors receptor, sequence (Q16620 whole entry): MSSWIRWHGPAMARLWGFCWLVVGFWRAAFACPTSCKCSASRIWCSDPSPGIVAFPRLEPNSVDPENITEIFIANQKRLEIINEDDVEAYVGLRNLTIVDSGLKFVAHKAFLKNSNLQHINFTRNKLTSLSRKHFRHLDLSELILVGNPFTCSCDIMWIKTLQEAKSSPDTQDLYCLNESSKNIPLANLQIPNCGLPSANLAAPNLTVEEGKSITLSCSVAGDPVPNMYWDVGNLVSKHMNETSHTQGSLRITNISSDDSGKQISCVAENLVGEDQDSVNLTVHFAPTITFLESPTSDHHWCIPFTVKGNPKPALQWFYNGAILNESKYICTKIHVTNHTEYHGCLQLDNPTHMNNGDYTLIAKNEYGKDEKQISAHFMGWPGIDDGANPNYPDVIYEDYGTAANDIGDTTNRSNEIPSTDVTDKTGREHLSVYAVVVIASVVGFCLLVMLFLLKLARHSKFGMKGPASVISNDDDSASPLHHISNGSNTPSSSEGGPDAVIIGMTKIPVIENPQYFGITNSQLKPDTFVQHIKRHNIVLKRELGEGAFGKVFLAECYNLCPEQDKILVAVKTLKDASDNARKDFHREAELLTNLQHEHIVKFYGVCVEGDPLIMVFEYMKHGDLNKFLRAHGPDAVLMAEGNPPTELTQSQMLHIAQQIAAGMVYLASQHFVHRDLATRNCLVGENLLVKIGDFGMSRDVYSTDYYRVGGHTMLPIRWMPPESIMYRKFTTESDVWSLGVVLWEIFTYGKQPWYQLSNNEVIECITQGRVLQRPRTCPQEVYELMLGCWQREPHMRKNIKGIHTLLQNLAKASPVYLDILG
Tyrosine-protein kinase BTK, sequence (Q06187 whole entry): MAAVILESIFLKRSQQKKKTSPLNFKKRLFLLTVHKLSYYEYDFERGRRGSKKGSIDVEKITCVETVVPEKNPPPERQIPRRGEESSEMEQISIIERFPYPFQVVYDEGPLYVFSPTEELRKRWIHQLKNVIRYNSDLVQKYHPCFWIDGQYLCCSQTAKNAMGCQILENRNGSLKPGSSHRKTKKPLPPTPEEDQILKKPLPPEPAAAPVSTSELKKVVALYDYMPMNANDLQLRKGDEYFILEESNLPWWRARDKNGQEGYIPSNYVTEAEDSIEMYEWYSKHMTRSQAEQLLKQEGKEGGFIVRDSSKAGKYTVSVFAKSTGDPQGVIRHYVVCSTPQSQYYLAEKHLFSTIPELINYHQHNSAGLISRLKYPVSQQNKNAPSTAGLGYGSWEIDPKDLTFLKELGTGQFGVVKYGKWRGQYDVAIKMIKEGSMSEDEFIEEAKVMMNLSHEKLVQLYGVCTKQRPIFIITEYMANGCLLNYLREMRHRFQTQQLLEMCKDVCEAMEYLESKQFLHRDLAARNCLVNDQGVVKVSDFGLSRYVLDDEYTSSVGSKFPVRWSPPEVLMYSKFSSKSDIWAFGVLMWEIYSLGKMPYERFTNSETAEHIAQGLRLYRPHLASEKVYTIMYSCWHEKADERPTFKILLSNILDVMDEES
Tyrosine-protein kinase Lck, sequence (P06239 whole entry): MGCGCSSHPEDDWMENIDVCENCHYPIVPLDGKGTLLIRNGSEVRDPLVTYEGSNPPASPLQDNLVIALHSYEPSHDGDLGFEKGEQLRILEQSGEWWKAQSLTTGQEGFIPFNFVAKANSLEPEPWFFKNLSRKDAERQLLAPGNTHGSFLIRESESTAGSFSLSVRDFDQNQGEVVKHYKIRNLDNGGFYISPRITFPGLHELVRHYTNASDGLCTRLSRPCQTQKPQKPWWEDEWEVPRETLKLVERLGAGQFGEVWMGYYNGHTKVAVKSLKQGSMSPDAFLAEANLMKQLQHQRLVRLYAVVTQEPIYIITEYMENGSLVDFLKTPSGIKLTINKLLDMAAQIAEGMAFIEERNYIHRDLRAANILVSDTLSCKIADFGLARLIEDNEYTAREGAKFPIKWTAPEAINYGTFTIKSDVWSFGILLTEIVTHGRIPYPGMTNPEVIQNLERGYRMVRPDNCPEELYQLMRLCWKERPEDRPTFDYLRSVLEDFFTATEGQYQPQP
Serine/threonine-protein kinase pim-1, sequence (P11309 whole entry): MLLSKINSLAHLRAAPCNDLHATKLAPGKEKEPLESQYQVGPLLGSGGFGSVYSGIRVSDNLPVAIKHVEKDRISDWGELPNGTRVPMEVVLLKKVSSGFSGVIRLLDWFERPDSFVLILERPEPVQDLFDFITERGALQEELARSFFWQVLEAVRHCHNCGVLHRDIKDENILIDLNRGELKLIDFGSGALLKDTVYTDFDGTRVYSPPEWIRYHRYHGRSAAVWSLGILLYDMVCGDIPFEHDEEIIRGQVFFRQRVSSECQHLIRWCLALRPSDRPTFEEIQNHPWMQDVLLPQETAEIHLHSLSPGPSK
Dual specificity protein phosphatase 3, sequence (P51452 whole entry, the tested form may be a part): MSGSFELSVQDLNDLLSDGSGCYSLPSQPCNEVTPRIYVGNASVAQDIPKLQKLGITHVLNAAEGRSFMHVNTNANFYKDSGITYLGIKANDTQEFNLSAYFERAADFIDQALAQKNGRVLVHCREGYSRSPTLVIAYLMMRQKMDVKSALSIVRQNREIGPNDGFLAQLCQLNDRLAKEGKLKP
Tyrosine-protein phosphatase non-receptor type 5, sequence (P54829 whole entry): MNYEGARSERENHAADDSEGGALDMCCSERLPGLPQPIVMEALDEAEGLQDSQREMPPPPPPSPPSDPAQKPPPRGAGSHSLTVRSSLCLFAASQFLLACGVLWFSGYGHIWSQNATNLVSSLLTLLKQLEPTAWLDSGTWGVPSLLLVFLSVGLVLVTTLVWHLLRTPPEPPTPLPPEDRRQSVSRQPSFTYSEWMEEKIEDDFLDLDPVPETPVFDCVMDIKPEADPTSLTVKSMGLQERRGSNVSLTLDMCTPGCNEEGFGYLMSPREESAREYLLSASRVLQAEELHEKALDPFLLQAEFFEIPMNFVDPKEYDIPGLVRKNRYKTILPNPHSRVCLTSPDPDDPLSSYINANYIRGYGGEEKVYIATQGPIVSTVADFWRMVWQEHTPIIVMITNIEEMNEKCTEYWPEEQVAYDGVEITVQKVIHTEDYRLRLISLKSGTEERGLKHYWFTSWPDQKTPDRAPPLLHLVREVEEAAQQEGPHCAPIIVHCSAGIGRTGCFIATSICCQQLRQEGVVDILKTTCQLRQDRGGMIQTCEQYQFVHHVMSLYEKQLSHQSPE

IC50 [1]: 4.81 µM (active)
SMILES: COc1ccc(Nc2ccccc2NC(=O)c2ccccc2Br)cc1

IC50 [1]: 4.2 µM (active)
SMILES: Cc1ccc2c(C)c(C(=O)N3CCN(c4ncccn4)CC3)oc2c1C

Ki [11]: > 6.31 µM (inactive)
Ki [12]: > 6.31 µM (inactive)
Ki [13]: > 6.31 µM (inactive)
Ki [14]: 0.631 µM (active)
Ki [15]: > 6.31 µM (inactive)
Ki [16]: > 6.31 µM (inactive)
Ki [17]: > 6.31 µM (inactive)
Ki [18]: 1.26 µM (active)
SMILES: O=C(Nc1ccccc1N1CCCC1)c1ccc2ccccc2n1

The next lines start with the molecule.

SMILES: O=C1c2ccccc2C(=O)c2[nH]cnc21
EC50 [2]: 85.6 µM (active)
AC50 [3]: 7.57 µM (active)
EC50 [4]: > 104 µM (inactive)
EC50 [5]: > 300 µM (not active)

SMILES: CCOC(=O)c1c(NC(=O)OC)sc(C(=O)N(CC)CC)c1C
IC50 [6]: 4.3 µM (active)
IC50 [7]: 28.4 µM (inactive)
IC50 [8]: 1.56 µM (active)

SMILES: FC(F)(F)c1cnc(-c2cnc(-c3ccccn3)nc2)c(Cl)c1
AC50 [9]: 75.3 µM (active)

SMILES: Nc1nc(=S)ss1
EC50 [4]: 10.3 µM (inactive)
IC50 [10]: 301 µM (active)
